Results from patent US20250304551A1 (SHANGHAI APEIRON THERAPEUTICS COMPANY LIMITED, priority 2022, published 2025).

Legend:
[1] = molecular target: T1, Human KIF18A (amino acid sequence 1-417) (Homo sapiens, UniProt Q8NI77); test: Enzyme activity detection experiment (ADP-Glo, KIF18A with tubulin and ATP); type: biochemical; conditions: tubulin 60 μg/mL, ATP 25 μM, KIF18A protein 2.5 nM, 120 minutes at ambient temperature, ADP-Glo chemiluminescence
T1 construct: purchased Viva Biotech (Shanghai) Ltd
Description: Materials: Human KIF18A (amino acid sequence 1-417) was obtained from Viva Biotech (Shanghai) Ltd., and the ADP-Glo™ protein kinase kit was acquired from Promega, USA. Tubulin was sourced from Cytoskeleton, USA, while a 384-well assay plate and the Envision multifunctional microplate reader were obtained from PerkinElmer, USA.
Enzyme activity detection: The compound powder in DMSO was firstly dissolved to prepare a 10 mM stock solution. Next, gradient dilutions were prepared in the microplate to achieve final concentrations of […]. Sequentially, 2.5 μL of tubulin (60 μg/mL), the compound, ATP (25 μM), and KIF18A protein (2.5 nM) were added to each well, and the reaction was incubated at ambient temperature for 120 minutes. After the reaction, 10 μL of ADP-Glo™ reagent was added to each well and incubated at ambient temperature for 30 minutes. Subsequently, 20 μL of detection reagent was added to each well and incubated for an additional 30 minutes in the dark. Finally, chemiluminescence detection was performed using the PerkinElmer Envision multifunctional microplate reader.

[2] = system: HT29 cells; test: CyQuant cell proliferation activity test, HT29; type: cell-based; conditions: Homo sapiens, HT-29, 72 h, HT29 2000 cells per well, 3 days incubation, initial concentration 3000 nM, IC50 by XLFIT, read-out: HT-29 Cell Viability_IC50_nM
Description: Materials and Cells: HT29 cells were purchased from Nanjing Cobioer Biosciences Co., Ltd.; RPM-1640 medium, fetal bovine serum, Trypsin-EDTA (0.25%), DMSO, 96-well plates, and CyQuant reagents were purchased from ThermoFisher (USA).
Cell Culture: Culture HT29 cells with RPMI-1640 containing 10% fetal bovine serum under the condition of 37° C. and 5% CO2. Only cells in the logarithmic growth phase can be used for the test.
Cell Proliferation Activity Test: Use the CyQuant reagent to detect the proliferation inhibitory activity of compounds on HT29 cells. Adjust the cell density and inoculate 100 μL per well into the 96-well plate (HT29 at 2000 cells per well), then incubate overnight under the condition of 37° C. and […]. Add compounds of various target concentrations (initial concentration of 3000 nM, 3-fold dilution, 9 concentration gradients), and make the DMSO content 0.20%. Incubate the cell plates at 37° C. and 5% CO2 for 3 days. Incubate with CyQuant reagent for 1 h, read the plate by Envision, and calculate IC50 using XLFIT.

[3] = system: OVCAR3 cells; test: Cell proliferation activity test, OVCAR3 (CyQUANT Direct); type: cell-based; conditions: Homo sapiens, OVCAR-3, 72 h, 3 days incubation, CyQUANT fluorescence detection, read-out: OVCAR-3 Cell Viability_IC50_nM
Description: Materials and Cells: OVCAR3 cells were purchased from Nanjing Cobioer Biosciences Co., Ltd. RPMI-1640 medium, fetal bovine serum, and the CyQUANT Direct Cell Proliferation Assay kit were purchased from Thermo Fisher Scientific, USA; 96-well cell culture plates were sourced from Corning, USA.
Cell Culture: Culture OVCAR3 cells with RPMI-1640 medium containing […] and incubate them in a […] incubator at 37° C. Only cells in the logarithmic growth phase can be used for the test.
Inoculate OVCAR3 cells into a 96-well cell culture plate at 90 μL per well and incubate overnight in a […] incubator at 37° C. Dissolve the compound powder in DMSO to prepare a stock solution of 10 mM. Then perform gradient dilution for the compounds in the microplate to achieve a final concentration of 0-10 μM. Add 10 μL of cell culture medium containing compounds to each well to make the final DMSO content 0.20%. Incubate the cell plates in a […] incubator at 37° C. for 3 days. Add 100 μL of CyQUANT detection reagent to each well, react at 37° C. for 60 min, and perform fluorescence detection using the PerkinElmer Envision.

T1 sequence (Q8NI77 1-417): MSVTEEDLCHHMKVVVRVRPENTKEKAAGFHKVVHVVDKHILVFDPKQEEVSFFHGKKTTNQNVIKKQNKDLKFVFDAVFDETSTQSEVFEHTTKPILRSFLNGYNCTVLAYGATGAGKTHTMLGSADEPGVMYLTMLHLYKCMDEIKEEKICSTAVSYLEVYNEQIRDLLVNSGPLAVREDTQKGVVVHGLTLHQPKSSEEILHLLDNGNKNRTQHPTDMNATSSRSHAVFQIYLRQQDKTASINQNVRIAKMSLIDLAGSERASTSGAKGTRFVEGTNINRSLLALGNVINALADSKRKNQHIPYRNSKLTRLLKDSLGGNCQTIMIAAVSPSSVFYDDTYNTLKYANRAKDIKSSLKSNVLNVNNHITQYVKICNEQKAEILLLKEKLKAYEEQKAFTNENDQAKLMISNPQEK
T1 sequence (Q2XVP4 whole entry partner): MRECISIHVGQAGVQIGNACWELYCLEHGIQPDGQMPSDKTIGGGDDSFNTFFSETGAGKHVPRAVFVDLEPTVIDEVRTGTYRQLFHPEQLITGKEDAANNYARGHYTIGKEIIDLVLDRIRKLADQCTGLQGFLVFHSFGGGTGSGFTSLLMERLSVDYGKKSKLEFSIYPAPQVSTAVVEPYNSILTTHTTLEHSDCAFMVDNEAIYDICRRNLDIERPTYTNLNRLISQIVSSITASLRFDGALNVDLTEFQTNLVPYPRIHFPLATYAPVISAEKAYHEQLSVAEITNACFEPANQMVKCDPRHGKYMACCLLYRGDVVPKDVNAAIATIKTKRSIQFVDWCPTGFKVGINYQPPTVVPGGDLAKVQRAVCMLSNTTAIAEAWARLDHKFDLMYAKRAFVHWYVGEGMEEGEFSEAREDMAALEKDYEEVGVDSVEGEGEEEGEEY
T1 sequence (P02554 whole entry partner): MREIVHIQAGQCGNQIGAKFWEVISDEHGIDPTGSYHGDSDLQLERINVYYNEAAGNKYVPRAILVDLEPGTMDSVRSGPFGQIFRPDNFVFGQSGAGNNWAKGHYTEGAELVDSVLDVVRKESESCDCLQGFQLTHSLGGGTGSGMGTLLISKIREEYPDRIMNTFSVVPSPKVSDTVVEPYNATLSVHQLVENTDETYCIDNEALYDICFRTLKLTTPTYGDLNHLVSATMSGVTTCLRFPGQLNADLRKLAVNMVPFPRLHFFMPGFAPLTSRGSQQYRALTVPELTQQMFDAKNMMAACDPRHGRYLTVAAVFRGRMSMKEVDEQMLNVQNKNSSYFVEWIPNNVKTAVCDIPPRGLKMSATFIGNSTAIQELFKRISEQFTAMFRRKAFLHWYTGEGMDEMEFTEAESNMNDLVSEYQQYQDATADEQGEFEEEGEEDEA

SMILES	IC50 [1]	IC50 [2]	IC50 [3]
Cc1cc(-c2nnc(-c3ccc(NS(=O)(=O)CCO)cc3N3CCC4(CC3)CC4)o2)nc(N2CCCC(O)C2)n1 (stereo not drawn) [Example 17, 2-hydroxy-N-(4-(5-(2-(3-hydroxypiperidin-1-yl)-6-methylpyrimidin-4-yl)-1,3,4-oxadiazol-2-yl)-3-(6-azaspiro[2.5]octan-6-yl)phenyl)ethane-1-sulfonamide]	0.046 µM	0.337 µM	0.074 µM
Cc1cc(N2CCC(F)(F)CC2)nc(-c2nnc(-c3ccc(NS(=O)(=O)CCO)cc3N3CCC4(CC3)CC4)o2)n1 [Example 27, N-(4-(5-(4-(4,4-difluoropiperidin-1-yl)-6-methylpyrimidin-2-yl)-1,3,4-oxadiazol-2-yl)-3-(6-azaspiro[2.5]octan-6-yl)phenyl)-2-hydroxyethanesulfonamide]	0.124 µM	24.6 µM	0.875 µM
COc1cc(-c2nnc(-c3ccc(NS(=O)(=O)CCO)cc3N3CCC4(CC3)CC4)o2)cc(N2CCC(F)(F)CC2)n1 [Example 22, N-(4-(5-(2-(4,4-difluoropiperidin-1-yl)-6-methoxypyridin-4-yl)-1,3,4-oxadiazol-2-yl)-3-(6-azaspiro[2.5]octan-6-yl)phenyl)-2-hydroxyethane-1-sulfonamide]	0.046 µM	0.023 µM	0.034 µM
Cc1cc(-n2nnc(-c3ccc(NS(=O)(=O)CCO)cc3N3CCC4(CC3)CC4)n2)cc(N2CCC(F)(F)CC2)n1 [Example 9, N-(4-(2-(2-(4,4-difluoropiperidin-1-yl)-6-methylpyridin-4-yl)-2H-tetrazol-5-yl)-3-(6-azaspiro[2.5]octan-6-yl)phenyl)-2-hydroxyethane-1-sulfonamide]	0.312 µM	0.165 µM	0.107 µM
O=S(=O)(CCO)Nc1ccc(-c2nnc(-c3cc4cccnc4c(N4CCC(F)(F)CC4)n3)o2)c(N2CCC3(CC2)CC3)c1 [Example 29, N-(4-(5-(8-(4,4-difluoropiperidin-1-yl)-1,7-naphthyridin-6-yl)-1,3,4-oxadiazol-2-yl)-3-(6-azaspiro[2.5]octan-6-yl)phenyl)-2-hydroxyethanesulfonamide]	0.048 µM	0.045 µM	0.037 µM

Next, values leading:

IC50 [1]	IC50 [2]	IC50 [3]	SMILES
0.227 µM	0.057 µM	0.092 µM	O=S(=O)(CCO)Nc1ccc(-c2cn(-c3cc(N4CCC(F)(F)CC4)c4ncccc4c3)nn2)c(N2CCC3(CC2)CC3)c1 [Example 94, N-(4-(1-(8-(4,4-difluoropiperidin-1-yl)quinolin-6-yl)-1H-1,2,3-triazol-4-yl)-3-(6-azaspiro[2.5]octan-6-yl)phenyl)-2-hydroxyethane-1-sulfonamide]
> 3 µM	> 3 µM	> 3 µM	Cc1cc(-c2cn(-c3ccc(NS(=O)(=O)CCO)cc3N3CCC4(CC3)CC4)nn2)cc(N2CCC(F)(F)CC2)c1[N+](=O)[O-] [Example 78, N-(3-{6-azaspiro[2.5]octan-6-yl}-4-{4-[3-(4,4-difluoropiperidin-1-yl)-5-methyl-4-nitrophenyl]-1H-1,2,3-triazol-1-yl}phenyl)-2-hydroxyethane-1-sulfonamide]
0.807 µM	0.127 µM	0.119 µM	Cc1ccc2cc(-c3cn(-c4ccc(NS(=O)(=O)CCO)cc4N4CCC5(CC4)CC5)nn3)cc(N3CCC(F)(F)CC3)c2n1 [Example 74, N-(3-{6-azaspiro[2.5]octan-6-yl}-4-{4-[8-(4,4-difluoropiperidin-1-yl)-2-methylquinolin-6-yl]-1H-1,2,3-triazol-1-yl}phenyl)-2-hydroxyethane-1-sulfonamide]
0.04 µM	0.003 µM	0.003 µM	Nc1cc(-c2cn(-c3ccc(NS(=O)(=O)CCO)cc3N3CCC4(CC3)CC4)nn2)nc(N2CCC(F)(F)CC2)n1 [Example 55, N-(4-{4-[6-amino-2-(4,4-difluoropiperidin-1-yl)pyrimidin-4-yl]-1H-1,2,3-triazol-1-yl}-3-{6-azaspiro[2.5]octan-6-yl}phenyl)-2-hydroxyethane-1-sulfonamide]
